Measurements taken from US10383844B2, “Methods for treating pulmonary fibrosis using chromenone derivatives” (College of Medicine Pochon Cha University Industry—Academic …, priority 2017, dated 2019).

How the values were obtained:
L132 cells [1] = assay: Degree of EMT induced by TGF-beta in L132 cells (western blots); assay type: cell-based; conditions: L132, 0.1 μM, 1 hour later TGF-beta 5 ng/mL for 48 hours, FIG. 3(A)
Method: (§1) For the experiment, L132 cells were cultured at 37° C. in a 5% CO2 incubator by using an RPMI 1640 (RPMI, GIBCO-Invitrogen, Paisley, Scotland, UK) medium containing 10% FBS and 1× Antibiotic-Antimycotic (GIBCO-Invitrogen, Paisley, Scotland, UK).
(§2) To carry out the western blots, the treated cells were respectively washed twice with 1×PBS (0.14 M NaCl, 2.68 mM KCl, 10 mM Na2HPO4, 1.83 mM KH2PO4), after which the resulting cells were dissolved in a protein lysis buffer (100 mM Tris-HCl (pH 7.5), 50 mM NaCl, 5 mM EDTA (pH 8.0), 0.5% NP-40, 0.5% Sodium deoxycholate, 50 mM β-glycerophosphate, 0.1 mM Na3VO4, 50 mM NaF). A cell suspension was centrifuged at 13000 rpm for 30 minutes, after which only a supernatant thereof was taken out, such that 1% BSA solution was injected by 8, 6, 4, 2 and 0 μL into Protein Dye 1 mL as a standard by using a Bradford assay and 2 μL of the supernatant was added thereinto. The resulting solution was divided by 200 μL into each of a 96-well plate, after which the resulting plate was put into an ELISA reader to measure an optical observance thereof at an wavelength of 595 nm, such that a 6× sample buffer (0.35 M Tris (pH 6.8), 3% glycerol, 1% Sodium Dodecyl Sulfate, 6 mM Dithiothreitol) was injected to make a sample containing the same amount of protein. Then, the resulting sample was soaked in 100° C. water and boiled for 5 minutes and the same amount of protein was analyzed by using SDS-PAGE. A primary antibody used for the western blots was anti-HSP27 and β-actin (Santacruz, sc-13132 and sc-47778), and also anti-E-cadherin (BD, #610181), anti-Vimentin (BD, #550513), anti-Fibronectin (BD, #610077), anti-snail (Cell signaling, #3895S), anti-alpha-smooth muscle actin (Sigma, A5228), and anti-Zo-1 (Life technologies, #402200) were used. A secondary antibody used was Goat anti rabbit and Goat anti mouse (Santacruz, sc-2004 and sc-2005).
To identify a degree of EMT according to a production of altered HSP27 dimers in cells, L132, a normal lung cell, was treated with Compound 1 of the present invention at a 0.1 μM concentration, and in 1 hour later the cell was treated with TGF-beta at a 5 ng/mL concentration for 48 hours. Then, a cell culture and western blots were performed in the same method as the above Experimental Example 1.

L132 cells [2] = assay: Degree of radiation-induced EMT in L132 cells (western blots); assay type: cell-based; conditions: L132, 0.1 μM, 1 hour later radiation 5 Gy, 48 hours, FIG. 3(B)
Method: as §1
as §2, with “sc-2005). […]” for “sc-2005).”

[3] = system: radiation-induced pulmonary fibrosis; assay: Small animal model of radiation-induced pulmonary fibrosis (local lung irradiation); assay type: in vivo; conditions: C57BL/6 male mouse, left lung 75 Gy, 13.6 mg/kg intraperitoneally three times a week, FIG. 4(B)
Method: To identify an anti-pulmonary fibrosis effect according to a production of HSP27 dimers in a small animal model on lung side effects with clinically analogous irradiation, the small animal model was exposed to a radiation dose in a range of high dose clinical radiotherapy to induce a pulmonary fibrosis process.
As shown in FIG. 4(A), a 10 week-old C57BL/6 male mouse was anesthetized with an anesthetic mixture of 30 mg/kg Zoletil and 10 mg/kg Rompun, after which a left lung of the mouse was exposed to a high dose radiation of 75 Gy in a 3 mm range by using X-Rad 320 (Precision, North Branford, Conn., USA). Then, Compound 1 of the present invention was intraperitoneally administered to the mouse at a 13.6 mg/kg concentration three times a week. During its sacrifice, the mouse was anesthetized, after which 10% formalin was injected into the anesthetized mouse through an airway thereof to fix its lung, such that a tissue sample was prepared by using a paraffin embedding.
An amount of collagen was histologically identified through Masson's trichrome dyeing to compare degrees of pulmonary fibrosis with each other.

melting point [°C] | SMILES | altered HSP dimers (L132 cells [1]) | expression of E-cadherin (marker of epithelial cells) (L132 cells [1]) | expression of Fibronectin (marker of mesenchymal cells) (L132 cells [1]) | expression of Snail (marker of mesenchymal cells) (L132 cells [1]) | expression of E-cadherin (L132 cells [2]) | expression of Twist (marker of mesenchymal cells) (L132 cells [2]) | expression of Zo-1 (L132 cells [2]) | immune response lesion in locally irradiated lung region (naked eye) [3]
 | Cc1cc(=O)c2c(O)cc(OCC3CS3)cc2o1 (stereo not drawn) [Compound 1, 5-hydroxy-2-methyl-7-(thiirane-2-ylmethoxy)-4H-chromene-4-one] | increasing altered HSP dimers in a dose-dependent manner | mitigating a decrease | inhibiting an increase | inhibiting an increase | mitigated a decrease | inhibited an increase | mitigated a decrease | the lesion was recovered
95 to 96 | Cc1cc(=O)c2c(OCC3CS3)cc(OCC3CS3)cc2o1 (stereo not drawn) |  |  |  |  |  |  |  | 
